The assay concerns NKG2A^+ cells. Briefly: NKG2A^+ cells, blood and mucosa, PMA (Table 1 summary). The assay is classed as cell-based. The settings on record: * Zinc dependence. As to the method: Intracellular cytokines of Human blood NK cells using SAMT-247 and PMA stimulation with or without zinc chelator. The levels of NKG2A^+ NK cells were measured in blood of healthy humans. Human PBMCs were thawed and cultured in R10 in the presence or absence of SAMT-247 and/or PMA for 12 hours. Cells were incubated with or without Zinc chelator TPEN (cat. #P4413-100 MG, 5 μM) for 12 h. Subsequently, PBMCs were surface stained with the following: BUV737 anti-CD3 (SP34-2; cat. #741872, 5 μl), Alexa700 anti-CD20 (2H7; cat. #560631, 5 μl), BV786 anti-CD45 (HI30; cat. #563716, 5 μl) from BD Biosciences; APC-H7 anti-CD11b (ICRF44; cat. #47-0118-42, 5 μl) from eBioscience and PE-Cy7 anti-NKG2A (Z199; cat. #B10246, 5 μl) from Beckman coulter for 30 minutes at room temperature. This was followed by permeabilization with FOX3-transcription buffer set (cat. #00-5523-00) from eBioscience according to the manufacture's recommendation and subsequently intracellular staining with the following: BV750 anti-TNF-α (MAB11; cat. #566359, 5 μl), BUV396 anti-IFN-γ (B27; cat. #563563, 5 μl), BV510 anti-GranB (GB11; cat. #563388, 5 μl) from BD Biosciences; and FITC anti-Perforin (pf-344; cat. #3465-7, 5 μl) from MABTECH for 30 minutes at room temperature. Flow cytometry acquisitions were performed on a FACSymphony A5 and examined using FACSDIVA™ software (BD Biosciences).
Frequencies and cytokine levels of macaque rectal mucosal NK cells and T cells following SAMT-247 and PMA stimulation. NK/ILC and T cell frequencies and cytokine levels were measured in macaque rectal mucosa. Freshly collected rectal biopsies were processed to single cells and cultured in R10 in the presence/or absence of SAMT-247 and/or PMA for 12 hours. […]

With `CC(=O)Sc1ccccc1C(=O)NCCC(N)=O` [SAMT-247], the Cytokine entry (IFN-γ) was “<IFN-γ *”; the Cytokine entry (TNF-α) is “<TNF-α *”; the Cytokine result (granzyme and perforin) was “>Granzyme/Perforin”.

These data come from patent US20240277829A1, “HIV-1 VACCINATION AND SAMT-247 MICROBICIDE TO PREVENT HIV-1 INFECTION” (priority 2021, published 2024).
